Source: patent US20030157491A1, “HarA polypeptides and nucleic acids, and related methods and uses thereof” (priority 2002, published 2003)
≈ marks a conversion by molar mass, not a printed value.

Tests used:
S. aureus RN4220 ("SA1") = assay: MIC by broth microdilution, wild-type sensitive S. aureus RN4220; type: cell-based, Staphylococcus aureus; details: duplicate
Experimental: (§1) Quantitative assessment of resistance was performed by a broth microdilution method using cation-supplemented Mueller-Hinton broth containing antibiotics, the concentration of which varied in two-fold increments.
(§2) Preferably, the microdilution assay is performed using cation-adjusted Mueller-Hinton broth according to NCCLS (National Committee for Clinical Laboratory Standards) guideline M31 -A, Vol. 19, No. 11, “Performance standards for antimicrobial disk and dilution susceptibility tests for bacteria isolated from animals,” June 1999 (ISBN 1-56238-377-9), which is herein incorporated by reference.
(§3) To confirm the role of expZ in conferring resistance to hygromycin A analogues and other compounds, applicants examined the effect of B. subtilis and E. faecalis expZ expression and disruption on antibiotic resistance patterns. […] Also shown in Table 1 is the conferral of the “harA” phenotype on the normally drug-sensitive S. aureus RN4220 strain by transformation with a pMP plasmid containing B. subtilis harA.

SA1 (pMP20) = assay: MIC by broth microdilution, S. aureus RN4220 with vector only (pMP20); type: cell-based, Staphylococcus aureus
Experimental: (§4) To identify genes whose products might be important in establishing the intrinsic level of resistance to hygromycins, applicants screened a recombinant library of B. subtilis chromosomal DNA segments cloned into the E. coli-S. aureus shuttle vector pMP20 for S. aureus transformants with increased levels of resistance to a hygromycin analogue, as follows:
(§5) Chromosomal DNA was extracted from a 100 mL culture of B. subtilis strain JH642 grown in L both, partially digested with Sau3A and fractionated by electrophoresis in a 1% agarose gel. A fraction corresponding in size to 2-4 kb was purified and used for ligation with pMP20 that had been digested with BamHI and dephosphorylated with alkaline phosphatase. Ligated DNA was used to transform E. coli DH5α by electroporation, with selection for ampicillin resistance. Transformant colonies were pooled; the plasmid DNA mixture was extracted and used to transform S. aureus RN4220 by electroporation with selection on plates containing erythromycin (2 μg/mL) and 2 μg/mL of a nonpolar hygromycin A analogue, 3-(4-((2S,4S,5R)-5-(3-(2,4-dichloro-phenoxy)-1-methyl)-(1E)-propenyl)-4-hydroxy-tetrahydro-furan-2-yloxy)-3-hydroxy-phenyl)-2-methyl-N-((3aS,4R,5R,6S,7R,7aR)-4,6,7-trihydroxy-hexahydro-benzo(1,3)dioxol-5-yl)-(2E)-acrylamide, which is Example 68 of WO 00/32616 and referred to herein as “Compound 1”.
(§6) Vector-transformed S. aureus cells were sensitive to this level of Compound 1. Plasmid segregation and backcross experiments confirmed that plasmids harboring DNA segments from the B. subtilis chromosome conferred hygromycin A resistance in S. aureus. The MIC for Compound 1 was increased in these strains from ≦0.2 μg/mL for pMP20 transformants to 50 μg/mL for cells transformed with the recombinant plasmids.
as §1, §2, §3

SA1 (pMP20 Bs_harA+) = assay: MIC by broth microdilution, S. aureus RN4220 with vector carrying B. subtilis harA; type: cell-based, Staphylococcus aureus; details: for increase in the MIC: sensitive S. aureus strain compared to same strain transformed with and expressing harA
Experimental: as §4, §5, §6, §1, §2, §3

[1] = system: B. subtilis JH642 trpC2 pheA1 ("BS1"); assay: MIC by broth microdilution, wild-type resistant B. subtilis JH642; type: cell-based, Bacillus subtilis; details: duplicate
Experimental: as §1, §2, §3

BS1 (harA::cat) = assay: MIC by broth microdilution, B. subtilis JH642 harA disruption mutant; type: cell-based, Bacillus subtilis; details: for MIC: BS1 (harA::cat), disruption mutant, broth microdilution, duplicate; for susceptibility of strain JH642 expZ::CAT: B. subtilis harA::CAT insertion mutant
Description: A B. subtilis strain expressing a harA::CAT insertion mutant was produced by single-crossover recombination using integrative plasmid pJPM1. Plasmid pJPM1 is a pSK^− derivative that carries the cat gene of S. aureus plasmid pC194 that confers chloramphenicol resistance in B. subtilis. […] However, if any DNA fragment providing a region of homology with the B. subtilis chromosome is inserted into this plasmid, it acquires the ability to transform B. subtilis competent cells to cat resistance at high frequency. The integration occurs via a Campbell-type (single crossover) recombination event that results in the duplication of the cloned region at either end of the vector. Reversal of the integration event leads to precise excision of the plasmid and restoration of gene structure on the chromosome. An internal fragment of the B. subtilis harA gene was excised using EcoRV and EcoRI and subcloned into compatible sites in pJPM1 creating plasmid pJPM1-expZ1. Plasmid pJPM1-expZ1 was used to transform the naturally competent B. subtilis strain JH642 (hygromycin-resistant) and transformants selected using chloramphenicol ([…]). A harA::CAT insertion mutant was confirmed by PCR and the strain was designated “JH642 expZ::CAT.” Strain JH642 expZ::CAT was hypersensitive to hygromycin analogues and other unrelated antibiotics including lankacidin and virginiamycin. Strain JH642 expZ::CAT was deposited with the ATCC on Sep. 26, 2000, and accorded Accession No. PTA-2480.
as §1, §2, §3

[2] = system: E. faecalis OGX1 str gel ("EF1"); assay: MIC by broth microdilution, wild-type resistant E. faecalis OG1X; type: cell-based, Enterococcus faecalis; details: duplicate
Experimental: as §1, §2, §3

EF1 (harA::erm) = assay: MIC by broth microdilution, E. faecalis OG1X harA disruption mutant; type: cell-based, Enterococcus faecalis; details: for decrease in the MIC when the harA gene is disrupted: E. faecalis OG1X; for MIC: EF1 (harA::erm), disruption mutant, broth microdilution, duplicate; for susceptibility of strain OG1X harA::erm: E. faecalis harA::erm knockout strain
Description: A PCR product corresponding to an internal segment of the E. faecalis harA gene was generated to obtain pVA891 -expZ by using the E. coli vector pVA891, which carries an ERM determinant that expresses in E. coli and E. faecalis. Briefly, internal harA primers were used (sense: 5′-[…]-3′-SEQ ID NO: 5); (antisense: 5′-[…]-3′-SEQ ID NO: 6) with E. faecalis genomic template DNA to generate a 665 bp PCR product. PCR-generated fragments were purified using the QIAquick PCR purification kit and cloned into the T-A cloning plasmid pGem-T Easy. The fragment was subsequently excised using EcoRI, gel purified using the S&S Elu-Quik kit, and cloned into the EcoRI site of pVA891. The ligation was transformed in E. coli DH5α with selection for erythromycin resistance (200 μg/mL); resulting in pVA891-expZ. The plasmid pVA891-expz was introduced by electroporation into E. faecalis OG1X (hygromycin resistant), where integrants occurring via homologous recombination were selected using erythromycin (20 μg/mL). The harA::erm knockout strain was confirmed by PCR and designated “OG1X harA::erm.” Strain OG1X harA::erm was hypersensitive to nonpolar hygromycin A analogues, lankacidin, virginiamycin and Synercid®. Revertants (i.e., resistant strains) could be obtained by growing for several generations in the absence of erythromycin and identified by screening for resistance to hygromycin A and sensitivity to erythromycin. Strain OG1X harA::erm was deposited with the ATCC on Sep. 26, 2000, and was accorded Accession No. PTA-2550.
as §1, §2, §3

[3] = SA1 (pMP20), wild-type, sensitive + vector only, broth microdilution, duplicate
[4] = SA1 (pMP20 Bs_harA+), sensitive + vector with B. subtilis harA, broth microdilution, duplicate

Compound	MIC (S. aureus RN4220 ("SA1"))	MIC (SA1 (pMP20); [3])	MIC (SA1 (pMP20 Bs_harA+); [4]) [µg/mL]	MIC [1] [µg/mL]	MIC (BS1 (harA::cat))	MIC [2] [µg/mL]	decrease in the MIC when the harA gene is disrupted (EF1 (harA::erm))	MIC (EF1 (harA::erm))	sensitivity of vector-transformed S. aureus cells on selection plates (SA1 (pMP20); 2 μg/mL of compound on plates)	MIC (SA1 (pMP20); S. aureus pMP20 transformants (library selection, text)) [µg/mL]	MIC (SA1 (pMP20 Bs_harA+); S. aureus cells transformed with the recombinant plasmids carrying B. subtilis DNA segments) [µg/mL]	increase in the MIC (SA1 (pMP20 Bs_harA+))	decrease in the MIC when the harA gene is disrupted (BS1 (harA::cat); B. subtilis JH642)	susceptibility of strain JH642 expZ::CAT (BS1 (harA::cat))	susceptibility of strain OG1X harA::erm (EF1 (harA::erm))
5-deoxy-5[4-[(2,6-dideoxy-β-D-erythro-hexofuranos-5-ulos-1-yl)oxy]-3-hydroxyphenyl]-2-methyl-1-oxo-2-(E)-propenyl]amino]-1,2-O-methylene-D-neo-inositol, (E)-O-[(3-chlorophenyl)methyl]oxime [Compound 2]	≦0.2 μg/mL	≦0.2 μg/mL	50	100	0.39 µg/mL	1.25	greater than 4 fold	≦0.2 μg/mL	–	–	–	–	–	–	–
C/C(=C\c1ccc(O[C@H]2C[C@H](O)[C@@H](/C(C)=C/COc3ccc(Cl)cc3Cl)O2)c(O)c1)C(=O)N[C@@H]1[C@H](O)[C@@H](O)[C@H]2OCO[C@H]2[C@@H]1O [Compound 1]	≦0.2 μg/mL	≦0.2 μg/mL	100	50 (≈ 74.8 µM)	≦0.2 μg/mL	1.25 (≈ 1.87 µM)	–	≦0.2 μg/mL	sensitive	≤ 0.2	50	~500 fold	–	–	–
C/C(=C\c1ccc(O[C@@H]2O[C@H](/C(C)=N/OCc3cccc(Cl)c3)[C@@H](O)[C@@H]2O)c(O)c1)C(=O)N[C@@H]1[C@H](O)[C@@H](O)[C@H]2OCO[C@H]2[C@@H]1O [Compound 3, 5-deoxy-5-[[3-[4-[(6-deoxy-β-D-arabino-hexofuranos-5-ulos-1-yl)oxy]-3-hydroxyphenyl]-2-methyl-1-oxo-2-(E)-propenyl]amino]-1,2-O-methylene-D-neo-inositol, (E)-O-[(3-chlorophenyl)methyl]oxime]	0.39 µg/mL (≈ 0.599 µM)	0.39 µg/mL	>100	>100	0.78 µg/mL	1.56 (≈ 2.4 µM)	–	≦0.2 μg/mL	–	–	–	–	–	–	–
CC(=O)[C@H]1O[C@@H](Oc2ccc(/C=C(\C)C(=O)N[C@@H]3[C@H](O)[C@@H](O)[C@H]4OCO[C@H]4[C@@H]3O)cc2O)[C@@H](O)[C@@H]1O [Hygromycin A]	31.3 µg/mL (≈ 61.2 µM)	–	250	250 (≈ 489 µM)	15.6 µg/mL	62.5 (≈ 122 µM)	–	7.8 µg/mL	–	–	–	about 8 fold	about 16 fold	–	–
CC1=C\[C@@H](O)CC(=O)Cc2nc(co2)C(=O)N2CCC=C2C(=O)O[C@H](C(C)C)[C@H](C)/C=C/C(=O)NC\C=C\1 [Virginiamycin A]	0.78 µg/mL (≈ 1.48 µM)	0.78 µg/mL	50	25 (≈ 47.6 µM)	0.78 µg/mL	25 (≈ 47.6 µM)	–	1.56 µg/mL	–	–	–	–	–	hypersensitive	hypersensitive
Lankacidin	3.13 µg/mL	–	>100	>100	1.56 µg/mL	>100	greater than 100 fold	0.39 µg/mL	–	–	–	–	–	hypersensitive	hypersensitive
